# Experimental data: patent US20240247080A1, “GLP1/GIP/NPY2 RECEPTOR TRIPLE AGONISTS” (Boehringer Ingelheim International GmbH, priority 2022, published 2024)
# Where two headings read alike, the source gives them in different places. Starred links: 1 amine or outer side, 2 acyl side, 3 side chain; linkers in the order of their positions; H or OH if unused. Non-standard residues stand in square brackets, D forms with d. Groups on a side chain read outwards from the residue. *: point of attachment. C20 diacid = O=C(O)CCCCCCCCCCCCCCCCCCC(=O)*; C18 diacid = O=C(O)CCCCCCCCCCCCCCCCC(=O)*; γGlu = O=C(O)[C@H](CCC(=O)[*:2])N[*:1]; εLys = N[C@@H](CCCCN[*:1])C(=O)[*:2]; NMeR = CN[C@@H](CCCNC(=N)N)C(=O)O; Aib = CC(C)(N)C(=O)O; Ahx = NCCCCCC(=O)O
# Experiments:
# Type in all cases: cell-based
# Details in all cases: CreLuc reporter gene assay
# hGLP1R = target: T1, hGLP1R (Homo sapiens, UniProt P43220); experiment: hGLP1R CreLuc reporter gene assay in 0.5% and 100% plasma
# T1 construct: expressed in transfected cells; host or cells: HEK-293 cells carrying a CRE-luciferase reporter gene
# T1 sequence (P43220 24-463): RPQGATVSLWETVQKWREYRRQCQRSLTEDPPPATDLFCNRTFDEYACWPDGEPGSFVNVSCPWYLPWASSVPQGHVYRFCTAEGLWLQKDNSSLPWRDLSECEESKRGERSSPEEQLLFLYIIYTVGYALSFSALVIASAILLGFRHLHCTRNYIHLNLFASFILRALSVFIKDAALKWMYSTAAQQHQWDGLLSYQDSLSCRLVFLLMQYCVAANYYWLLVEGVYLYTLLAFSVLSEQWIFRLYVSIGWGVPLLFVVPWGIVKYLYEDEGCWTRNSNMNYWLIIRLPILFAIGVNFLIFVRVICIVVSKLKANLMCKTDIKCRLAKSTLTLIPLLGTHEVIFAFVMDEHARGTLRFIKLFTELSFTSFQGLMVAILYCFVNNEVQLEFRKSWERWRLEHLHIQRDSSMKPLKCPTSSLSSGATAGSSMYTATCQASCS
# In short: (§1)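 HEK-293 cells co-expressing GLP-1 or NPY2 receptor and CHO cells expressing GIP receptor, each carrying a CRE-driven luciferase reporter, were stimulated with peptides for 4 hours at 37 °C. Luminescence was read after Bright-Glo addition. EC50 came from 8-point, four-decade curves fitted by variable-slope non-linear regression.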
# hGIPR = target: T2, hGIPR (Homo sapiens, UniProt P48546); experiment: hGIPR CreLuc reporter gene assay in 0.5% and 100% plasma
# T2 construct: expressed in transfected cells; host or cells: CHO cells carrying a CRE-luciferase reporter gene
# T2 sequence (P48546 22-466): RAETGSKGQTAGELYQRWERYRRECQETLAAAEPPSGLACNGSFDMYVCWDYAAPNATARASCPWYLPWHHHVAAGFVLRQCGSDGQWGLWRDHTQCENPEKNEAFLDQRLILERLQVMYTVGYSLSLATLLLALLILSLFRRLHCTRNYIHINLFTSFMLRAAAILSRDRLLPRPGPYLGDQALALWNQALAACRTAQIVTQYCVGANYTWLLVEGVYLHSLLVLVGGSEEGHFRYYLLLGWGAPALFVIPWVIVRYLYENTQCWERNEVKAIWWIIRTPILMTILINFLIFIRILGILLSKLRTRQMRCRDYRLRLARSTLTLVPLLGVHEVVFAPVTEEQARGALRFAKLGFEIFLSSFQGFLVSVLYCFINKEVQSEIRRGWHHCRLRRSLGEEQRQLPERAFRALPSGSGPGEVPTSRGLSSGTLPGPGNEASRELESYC
# In short: as §1
# hNPY2R = target: T3, hNPY2R (Homo sapiens, UniProt P49146); experiment: hNPY2R CreLuc reporter gene assay in 0.5% and 100% plasma
# T3 construct: expressed in transfected cells; host or cells: HEK-293 cells carrying a CRE-luciferase reporter gene
# T3 sequence (P49146 1-381): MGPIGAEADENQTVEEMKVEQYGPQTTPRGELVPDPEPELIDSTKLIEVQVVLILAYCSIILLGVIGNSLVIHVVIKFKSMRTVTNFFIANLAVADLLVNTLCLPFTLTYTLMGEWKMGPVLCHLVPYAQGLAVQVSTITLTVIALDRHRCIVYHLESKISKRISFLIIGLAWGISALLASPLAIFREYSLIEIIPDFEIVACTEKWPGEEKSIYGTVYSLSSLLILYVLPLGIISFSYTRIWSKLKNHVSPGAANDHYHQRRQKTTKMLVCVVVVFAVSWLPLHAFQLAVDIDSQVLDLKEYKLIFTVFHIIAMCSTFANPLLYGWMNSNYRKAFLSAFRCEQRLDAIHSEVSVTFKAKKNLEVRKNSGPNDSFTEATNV
# In short: as §1
# [1] = 0.5% human plasma, read-out: hGLP1R 0.5% hP
# [2] = 0.5% human plasma, read-out: hGIPR 0.5% hP
# [3] = 100% human plasma, read-out: hGIPR 100% hP
# [4] = 0.5% human plasma, read-out: hNPY2R 0.5% hP
# [5] = 100% human plasma, read-out: hNPY2R 100% hP
Substance,EC50 (hGLP1R; [1]),EC50 (hGIPR; [2]),EC50 (hGIPR; [3]),EC50 (hNPY2R; [4]),EC50 (hNPY2R; [5]),"EC50 (hGLP1R; 100% human plasma, read-out: hGLP1R 100% hP)"
"H-Y[Aib]EGTFTSDYSI[Aib]LEKQAE[Aib]AFVQWLIK([εLys-γGlu-γGlu-γGlu-γGlu-γGlu-γGlu-C18 diacid])GGPSSGASLRHYYNWLTRQRY-NH2 [Compound 51, Y-Aib-E-G-T-F-T-S-D-Y-S-I-Aib-L-E-K-Q-A-E-Aib-A-F-V-Q-W-L-I-K(1,3)-GGPSSGASLRHYYNWLTRQRY-NH2.C18DA-gGlu-gGlu-gGlu-gGlu-gGlu-gGlu-eLys(1,2)]",0.15 nM,0.23 nM,1.37 nM,13.7 nM,42.2 nM,–
"H-Y[Aib]EGTFTSDYSI[Aib]LEKQAQ[Aib]AFVQWLIK([εLys-γGlu-γGlu-γGlu-γGlu-γGlu-γGlu-C20 diacid])GGQRSYASLRHYYNWLTRQRY-NH2 [Compound 3, Y-Aib-E-G-T-F-T-S-D-Y-S-I-Aib-L-E-K-Q-A-Q-Aib-A-F-V-Q-W-L-I-K(1,3)-GGQRSYASLRHYYNWLTRQRY-NH2.C20DA-gGlu-gGlu-gGlu-gGlu-gGlu-gGlu-eLys(1,2)]",0.45 nM,0.53 nM,–,–,23 nM,–
"H-Y[Aib]EGTFTSDYSI[Aib]LEKQAQ[Aib]EFVEWLIK([εLys-γGlu-γGlu-γGlu-γGlu-γGlu-γGlu-γGlu-C20 diacid])GGPSSGASLRHYYNWLTRQRY-NH2 [Compound 88, Y-Aib-E-G-T-F-T-S-D-Y-S-I-Aib-L-E-K-Q-A-Q-Aib-E-F-V-E-W-L-I-K(1,3)-GGPSSGASLRHYYNWLTRQRY-NH2.C20DA-gGlu-gGlu-gGlu-gGlu-gGlu-gGlu-gGlu-eLys(1,2)]",–,0.53 nM,1.58 nM,–,45.4 nM,7.18 nM
"H-Y[Aib]EGTFTSDYSI[Aib]LEKQAQ[Aib]AFVEWLIK([Ahx-γGlu-γGlu-γGlu-γGlu-γGlu-γGlu-C18 diacid])GGPSEGASLRHYYNWLTRQRY-NH2 [Compound 303, Y-Aib-E-G-T-F-T-S-D-Y-S-I-Aib-L-E-K-Q-A-Q-Aib-A-F-V-E-W-L-I-K(1,3)-GGPSEGASLRHYYNWLTRQRY-NH2.C18DA-gGlu-gGlu-gGlu-gGlu-gGlu-gGlu-AHX(1,2)]",0.2 nM,0.36 nM,–,–,122 nM,–
"H-Y[Aib]EGTFTSDYSI[Aib]LEKQAQ[Aib]AFVQWLIK([εLys-γGlu-γGlu-γGlu-γGlu-γGlu-γGlu-C20 diacid])GGPSEGASLRHYYNWLTRQ[NMeR]Y-NH2 [Compound 125, Y-Aib-E-G-T-F-T-S-D-Y-S-I-Aib-L-E-K-Q-A-Q-Aib-A-F-V-Q-W-L-I-K(1,3)-G-G-P-S-E-G-A-S-L-R-H-Y-Y-N-W-L-T-R-Q-NMeR-Y-NH2.C20DA-gGlu-gGlu-gGlu-gGlu-gGlu-gGlu-eLys(1,2)]",0.23 nM,0.28 nM,1.72 nM,30.9 nM,99.3 nM,–
"H-Y[Aib]EGTFTSDYSI[Aib]LEKQAQ[Aib]AFVEWLIK([εLys-γGlu-γGlu-γGlu-γGlu-γGlu-γGlu-C20 diacid])GGPSSGALLRHYYNWLTRQRY-NH2 [Compound 197, Y-Aib-E-G-T-F-T-S-D-Y-S-I-Aib-L-E-K-Q-A-Q-Aib-A-F-V-E-W-L-I-K(1,3)-GGPSSGALLRHYYNWLTRQRY-NH2.C20DA-gGlu-gGlu-gGlu-gGlu-gGlu-gGlu-eLys(1,2)]",0.31 nM,0.43 nM,–,42.6 nM,157 nM,–
